From patent US8901118B2, “Compounds and methods for kinase modulation, and indications therefor” (Plexxikon Inc., priority 2010, dated 2014)

Columns and labels:
[1] = target: T1, BCR-NTRK1 BaF3 cells (Homo sapiens, UniProt P04629); assay: BaF3 BCR-NTRK1 cell proliferation assay (ATPlite); type: cell-based; settings: read-out: Inhibition of Cell Proliferation IC50, BCR/BaF3 TrkA
T1 construct: fused on or other part: P11274 (Breakpoint cluster region protein)
Summary of the method: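 BaF3 lines were seeded at 10,000 cells/well in growth medium with 1 mg/mL G418 but no IL-3, and MV-4-11 cells at 25,000 cells/well; plates were left overnight at 37 °C. Compounds were added as an 8-point 1:3 series with a top concentration of 10 μM and incubated 3 days. IC50 was taken from ATPlite luminescence.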

[2] = target: T2, CYP1A2 (Homo sapiens, UniProt P05177); assay: CYP1A2 inhibition (fluorescent substrate CEC); type: in vitro ADME; settings: read-out: Cyp IC50 1A2
T2 sequence (P05177 1-516): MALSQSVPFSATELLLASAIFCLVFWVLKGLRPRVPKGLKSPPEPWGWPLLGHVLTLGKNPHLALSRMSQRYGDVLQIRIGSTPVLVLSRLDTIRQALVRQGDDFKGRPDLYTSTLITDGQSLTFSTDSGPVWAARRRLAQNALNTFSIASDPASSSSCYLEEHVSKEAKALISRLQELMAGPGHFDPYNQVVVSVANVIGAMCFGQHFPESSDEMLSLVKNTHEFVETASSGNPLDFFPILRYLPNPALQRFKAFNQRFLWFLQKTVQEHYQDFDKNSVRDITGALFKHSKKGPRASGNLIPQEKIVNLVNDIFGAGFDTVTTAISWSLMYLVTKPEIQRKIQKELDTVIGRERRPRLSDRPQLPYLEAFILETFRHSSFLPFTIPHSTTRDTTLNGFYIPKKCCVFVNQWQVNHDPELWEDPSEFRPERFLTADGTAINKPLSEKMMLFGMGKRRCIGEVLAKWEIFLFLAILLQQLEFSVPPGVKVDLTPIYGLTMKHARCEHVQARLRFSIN
Summary of the method: (§1)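 Inhibition is measured as the drop in fluorescent metabolite formation across a 10-point compound titration with NADPH regeneration at 37 °C. Incubation lasts 15 min for CYP1A2, 45 min for CYP2C9 and 30 min for CYP2C19 and CYP2D6.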

[3] = target: CYP2D6 (Homo sapiens, UniProt P10635); assay: CYP2D6 inhibition (fluorescent substrate AMMC); type: in vitro ADME; settings: read-out: Cyp IC50 2D6
Chain of CYP2D6 (P10635 whole entry): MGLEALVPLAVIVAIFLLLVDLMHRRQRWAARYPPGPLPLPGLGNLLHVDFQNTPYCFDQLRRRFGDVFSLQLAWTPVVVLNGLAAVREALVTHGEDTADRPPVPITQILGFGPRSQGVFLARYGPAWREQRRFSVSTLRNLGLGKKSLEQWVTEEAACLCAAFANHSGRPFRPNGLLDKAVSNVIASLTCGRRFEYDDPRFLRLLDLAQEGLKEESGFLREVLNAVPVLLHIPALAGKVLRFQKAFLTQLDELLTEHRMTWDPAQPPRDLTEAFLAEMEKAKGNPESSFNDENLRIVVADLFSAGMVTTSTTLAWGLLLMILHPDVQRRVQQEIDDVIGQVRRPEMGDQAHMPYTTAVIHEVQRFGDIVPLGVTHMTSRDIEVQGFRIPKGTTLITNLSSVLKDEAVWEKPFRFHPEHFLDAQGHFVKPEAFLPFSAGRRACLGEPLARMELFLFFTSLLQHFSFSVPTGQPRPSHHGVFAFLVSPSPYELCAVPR
Summary of the method: as §1

T1 sequence (P04629 510-781): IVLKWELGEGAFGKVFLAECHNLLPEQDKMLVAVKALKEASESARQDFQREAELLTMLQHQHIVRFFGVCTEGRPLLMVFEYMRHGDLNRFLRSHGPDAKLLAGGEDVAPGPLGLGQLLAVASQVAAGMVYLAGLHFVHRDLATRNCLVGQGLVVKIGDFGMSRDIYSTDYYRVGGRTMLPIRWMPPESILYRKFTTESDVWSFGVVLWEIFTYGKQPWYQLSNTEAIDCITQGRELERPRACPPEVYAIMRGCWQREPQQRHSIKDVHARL

| Compound | IC50 [1] [µM] | IC50 [2] [µM] | IC50 [3] [µM] |
| --- | --- | --- | --- |
| CCCNc1ncnc2[nH]cc(C(=O)c3ccc(Nc4ccc(C)nc4)nc3F)c12 [Compound P-4114, [2-fluoro-6-[(6-methyl-3-pyridyl)amino]-3-pyridyl]-[4-(propylamino)-7H-pyrrolo[2,3-d]pyrimidin-5-yl]methanone] | < 0.01 | > 10 | > 10 |
| CNc1ncnc2[nH]cc(C(=O)c3ccc(Nc4ccc(C)nc4)nc3F)c12 [Compound P-4115, [2-fluoro-6-[(6-methyl-3-pyridyl)amino]-3-pyridyl]-[4-(methylamino)-7H-pyrrolo[2,3-d]pyrimidin-5-yl]methanone] | < 0.1 | < 5 | < 5 |
| CCc1ccc(Nc2ccc(C(=O)c3c[nH]c4ncnc(NC5CCOCC5)c34)c(F)n2)cn1 [Compound P-4116, [6-[(6-ethyl-3-pyridyl)amino]-2-fluoro-3-pyridyl]-[4-(tetrahydropyran-4-ylamino)-7H-pyrrolo[2,3-d]pyrimidin-5-yl]methanone] | < 0.01 | > 10 | > 10 |
| CCc1ccc(Nc2ccc(C(=O)c3c[nH]c4ncnc(NC(C)C)c34)c(F)n2)cn1 [Compound P-4117, [6-[(6-ethyl-3-pyridyl)amino]-2-fluoro-3-pyridyl]-[4-(isopropylamino)-7H-pyrrolo[2,3-d]pyrimidin-5-yl]methanone] | < 0.01 | 5 to 10 | > 10 |
| CCc1ccc(Nc2ccc(C(=O)c3c[nH]c4ncnc(NCC5CC5)c34)c(F)n2)cn1 [Compound P-4118, [4-(cyclopropylmethylamino)-7H-pyrrolo[2,3-d]pyrimidin-5-yl]-[6-[(6-ethyl-3-pyridyl)amino]-2-fluoro-3-pyridyl]methanone] | < 0.01 | > 10 | > 10 |
| CCc1ccc(Nc2ccc(C(=O)c3c[nH]c4ncnc(NCCOC)c34)c(F)n2)cn1 [Compound P-4119, [6-[(6-ethyl-3-pyridyl)amino]-2-fluoro-3-pyridyl]-[4-(2-methoxyethylamino)-7H-pyrrolo[2,3-d]pyrimidin-5-yl]methanone] | < 0.01 | > 10 | > 10 |
| CCc1ccc(Nc2ccc(C(=O)c3c[nH]c4ncnc(NCC(F)(F)F)c34)c(F)n2)cn1 [Compound P-4120, [6-[(6-ethyl-3-pyridyl)amino]-2-fluoro-3-pyridyl]-[4-(2,2,2-trifluoroethylamino)-7H-pyrrolo[2,3-d]pyrimidin-5-yl]methanone] | < 0.01 | < 5 | < 5 |

Next, values leading:

| IC50 [1] [µM] | IC50 [2] [µM] | IC50 [3] [µM] | Compound |
| --- | --- | --- | --- |
| < 0.01 | > 10 | > 10 | CCc1ccc(Nc2ccc(C(=O)c3c[nH]c4ncnc(NCC(C)C)c34)c(F)n2)cn1 [Compound P-4121, [6-[(6-ethyl-3-pyridyl)amino]-2-fluoro-3-pyridyl]-[4-(isobutylamino)-7H-pyrrolo[2,3-d]pyrimidin-5-yl]methanone] |
| < 0.01 | > 10 | > 10 | CCCNc1ncnc2[nH]cc(C(=O)c3ccc(Nc4ccc(CC)nc4)nc3F)c12 [Compound P-4122, [6-[(6-ethyl-3-pyridyl)amino]-2-fluoro-3-pyridyl]-[4-(propylamino)-7H-pyrrolo[2,3-d]pyrimidin-5-yl]methanone] |
| < 0.01 | > 10 | > 10 | CCNc1ncnc2[nH]cc(C(=O)c3ccc(Nc4ccc(CC)nc4)nc3F)c12 [Compound P-4123, [4-(ethylamino)-7H-pyrrolo[2,3-d]pyrimidin-5-yl]-[6-[(6-ethyl-3-pyridyl)amino]-2-fluoro-3-pyridyl]methanone] |
| < 0.01 | < 5 | < 5 | CCc1ccc(Nc2ccc(C(=O)c3c[nH]c4ncnc(NC)c34)c(F)n2)cn1 [Compound P-4124, [6-[(6-ethyl-3-pyridyl)amino]-2-fluoro-3-pyridyl]-[4-(methylamino)-7H-pyrrolo[2,3-d]pyrimidin-5-yl]methanone] |
| < 0.01 | > 10 | > 5 | CCc1ccc(Nc2ccc(C(=O)c3c[nH]c4ncnc(NC5CC5)c34)c(F)n2)cn1 [Compound P-4125, [4-(cyclopropylamino)-7H-pyrrolo[2,3-d]pyrimidin-5-yl]-[6-[(6-ethyl-3-pyridyl)amino]-2-fluoro-3-pyridyl]methanone] |
| < 0.01 | < 5 | > 10 | COc1ccc(Nc2ccc(C(=O)c3c[nH]c4ncnc(NC5CC5)c34)c(F)n2)cn1 [Compound P-4126, [4-(cyclopropylamino)-7H-pyrrolo[2,3-d]pyrimidin-5-yl]-[2-fluoro-6-[(6-methoxy-3-pyridyl)amino]-3-pyridyl]methanone] |
| < 1 | > 10 | > 10 | Fc1cc(Cc2c[nH]c3ncnc(NC4CC4)c23)cnc1NC1CCC(F)(F)CC1 [Compound P-4127, N-cyclopropyl-5-[[6-[(4,4-difluorocyclohexyl)amino]-5-fluoro-3-pyridyl]methyl]-7H-pyrrolo[2,3-d]pyrimidin-4-amine] |
